Data: patent publication US20220040324A1, “COMBINATION OF ANTIBODY-DRUG CONJUGATE AND KINASE INHIBITOR” (DAIICHI SANKYO COMPANY, LIMITED, priority 2018, published 2022)

Legend:
[1] = tested on: NCI-N87 cell line; format: cell-based, human; conditions: 6 days culture, >0 synergistic, 0 additive, <0 antagonistic
Procedure: The human gastric cancer cell line NCI-N87 purchased from ATCC was used for evaluation. To a 1536-well cell culture plate, erlotinib (hydrochloride), poziotinib, mubritinib, brigatinib, or BIBF1120 prepared with dimethyl sulfoxide (DMSO) to concentrations of 2 mM, 400 μM, 80 μM, 16 μM, 3.2 μM, and 640 nM, or DMSO was added at 25 nL/well. […] Subsequently, NCI-N87 cells suspended with an RPMI1640 Medium containing 10% fetal bovine serum to a concentration of 4×10^4 cells/mL were seeded at 2.5 μL/well, and cultured at 37° C. under 5% CO2 for 6 days.
(§1) After culturing, a solution obtained by diluting CellTiter-Glo 2.0 Assay (Promega Corporation) with an equivalent amount of Glo Lysis buffer, 1×(Promega Corporation) was added at 2 μL/well, and incubation was performed at room temperature for 1 hour, and luminescence intensity was then measured for each well.
(§2) Cell growth inhibition rate (%) was calculated by using the following calculation expression.
(§3) T: Mean luminescence intensity of wells with specimen B: Mean luminescence intensity of wells with DMSO and medium C: Mean luminescence intensity of wells with DMSO and cells
(§4) Sigmoid fitting with Genedata Screener Analyzer Version 14 (Genedata AG, hereinafter referred to as Screener) was performed for concentration-dependent transition of cell growth inhibition rates under each of combined use conditions.

[2] = tested on: BxPC-3 cell line; format: cell-based, human; conditions: combined with mubritinib, 6 days culture, >0 synergistic, 0 additive, <0 antagonistic
Procedure: as §2, §3, §4, §1

[3] = tested on: EBC-1 cell line; format: cell-based, human; conditions: combined with mubritinib, 6 days culture, >0 synergistic, 0 additive, <0 antagonistic
Procedure: as §2, §3, §4

[4] = tested on: KPL-4 cell line; format: cell-based, human; conditions: 6 days culture, >0 synergistic, 0 additive, <0 antagonistic
Procedure: as §2, §3, §4

[5] = tested on: MDA-MB-453 cells; test: Antitumor test (1): nude mice with subcutaneously transplanted MDA-MB-453 cells; format: in vivo, human; conditions: single administration, five times a week
Procedure: (§5) Mouse: 5 to 6-week-old BALB/c nude mice (Charles River Laboratories Japan, Inc.) were subjected to experiment.
(§6) Assay and calculation expression: In all of the studies, the major axis and minor axis of a tumor were measured twice a week by using an electronic digital caliper (CD15-CX, Mitutoyo Corp.), and the tumor volume (mm^3) was calculated. The calculation expression is as shown below.
(§7) Tumor volume (mm^3)=1/2×Major axis (mm)×[Minor axis (mm)]^2
(§8) Everolimus was suspended in 30% propylene glycol and 5% Tween 80, and orally administered at a liquid volume of 10 mL/kg. Taselisib was suspended in 0.5% methyl cellulose and 0.2% Tween 80, and orally administered at a liquid volume of 10 mL/kg. Abemaciclib was suspended in 1% hydroxyethyl cellulose and 0.1% antifoam/25 mM phosphate buffer, pH2, and orally administered at a liquid volume of 10 mL/kg.
Everolimus was administered once a day, five times a week, at a dose of 5 mg/kg for 3 weeks. Taselisib was administered once a day, five times a week, at a dose of 5 mg/kg for 3 weeks. Abemaciclib was administered once a day, five times a week, at a dose of 30 mg/kg for 2 weeks.

[6] = tested on: MDA-MB-453 cells; test: Antitumor test (10): nude mice with subcutaneously transplanted MDA-MB-453 cells; format: in vivo, human; conditions: single administration
Procedure: as §5, §6, §7
MDA-MB-453 cells, a human breast cancer cell line, obtained from ATCC were suspended in Matrigel basement membrane matrix, and 1×10^7 cells were subcutaneously transplanted to the right flank of each female nude mouse, and the mice were randomly grouped 7 days after the transplantation (Day 0). The antibody-drug conjugate (2) was diluted with ABS buffer, and intravenously administered to the tail vein of each mouse once a week at a dose of 1 mg/kg (a liquid volume of 10 mL/kg) for three weeks (Days 0, 7, 14). Alpelisib was suspended in 0.5% methyl cellulose, and orally administered once a day, five times a week, at a dose of 25 mg/kg (a liquid volume of 10 mL/kg) for three weeks from Day 0. Single administration groups and a combined administration group with the antibody-drug conjugate (2) and alpelisib, and an ABS administration group as a control group were established.

[7] = tested on: 786-0 cells; test: Antitumor test (8): nude mice with subcutaneously transplanted 786-0 cells; format: in vivo, human; conditions: single administration
Procedure: as §5, §6, §7
Suspended in 100% Matrigel were 786-0 cells, a human kidney cancer cell line, purchased from ATCC, and 4×10^6 cells were subcutaneously transplanted to the right flank of each female nude mouse, and the mice were randomly grouped 19 days after the transplantation (Day 0). […] Cabozantinib was administered once a day, five times a week, 20 times in total, at a dose of 40 mg/kg.

[8] = tested on: JIMT-1 cells; test: Antitumor test (2): nude mice with subcutaneously transplanted JIMT-1 cells; format: in vivo, human; conditions: single administration; everolimus 5 mg/kg once a day, five times a week, seven times in total
Procedure: as §5, §6, §7, §8

[9] = tested on: KPL-4 cells; test: Antitumor test (7): nude mice with subcutaneously transplanted KPL-4 cells; format: in vivo, human; conditions: single administration
Procedure: as §5, §6, §7
KPL-4 cells, a human breast cancer cell line, obtained from Dr. Junichi Kurebayashi, Kawasaki Medical School (British Journal of Cancer. (1999)79 (5/6). 707-717) were suspended in physiological saline, and 1.5×10^7 cells were subcutaneously transplanted to the right flank of each female nude mouse, and the mice were randomly grouped 17 days after the transplantation (Day 0). The antibody-drug conjugate (2) was diluted with ABS buffer, and intravenously administered to the tail vein of each mouse once a week at a dose of 10 mg/kg (a liquid volume of 10 mL/kg) for three weeks (Days 0, 7, 14). Neratinib was suspended in 0.5% methyl cellulose, and orally administered once a day, five times a week, at a dose of 20 mg/kg (a liquid volume of 10 mL/kg) for two weeks. Single administration groups and a combined administration group with the antibody-drug conjugate (2) and neratinib, and an ABS administration group as a control group were established.

[10] = tested on: MDA-MB-453 cells; test: Antitumor test (9): nude mice with subcutaneously transplanted MDA-MB-453 cells; format: in vivo, human; conditions: single administration
Procedure: as §5, §6, §7
Palbociclib was suspended in 0.5% methyl cellulose, and orally administered once a day, five times a week, at a dose of 50 mg/kg (a liquid volume of 10 mL/kg) for three weeks from Day 0.

[11] = tested on: COLO201 cells; test: Antitumor test (3): nude mice with subcutaneously transplanted COLO201 cells; format: in vivo, human; conditions: single administration; regorafenib 10 mg/kg orally once a day, five times a week, three weeks
Procedure: as §5, §6, §7, §8

[12] = tested on: KPL-4 cells; test: Antitumor test (4): nude mice with subcutaneously transplanted KPL-4 cells; format: in vivo, human; conditions: single administration; tucatinib 100 mg/kg orally once a day, five times a week, two weeks
Procedure: as §5, §6, §7, §8

[13] = tested on: MDA-MB-453 cells; test: Antitumor test (5): nude mice with subcutaneously transplanted MDA-MB-453 cells; format: in vivo, human; conditions: single administration; tucatinib 100 mg/kg once a day, five times a week, three weeks
Procedure: as §5, §6, §7, §8

[14] = tested on: NCI-N87 cells; test: Antitumor test (6): nude mice with subcutaneously transplanted NCI-N87 cells; format: in vivo, human; conditions: single administration; tucatinib 100 mg/kg once a day, five times a week, two weeks
Procedure: as §5, §6, §7, §8

CC[C@@]1(O)C(=O)OCc2c1cc1n(c2=O)Cc2c-1nc1cc(F)c(C)c3c1c2[C@@H](NC(=O)CO)CC3 [Compound (1)]
Synergy Score, combination with BIBF1120 ([1]; combined with BIBF1120 (nintedanib)): −0.44 | Synergy Score, combination with Mubritinib ([1]; combined with mubritinib): −0.45 | Synergy Score, combination with Poziotinib ([1]; combined with poziotinib): −0.53 | Synergy Score, combination with Mubritinib [2]: −0.40 | Synergy Score, combination with Mubritinib [3]: −0.60 | Synergy Score, combination with Brigatinib ([4]; combined with brigatinib): −0.02 | Synergy Score, combination with Poziotinib ([4]; combined with poziotinib): −0.38

CCN1CCN(Cc2ccc(Nc3ncc(F)c(-c4cc(F)c5nc(C)n(C(C)C)c5c4)n3)nc2)CC1 [abemaciclib]
tumor growth inhibition (TGI) ([5]; abemaciclib 30 mg/kg orally once a day, 2 weeks): 68%

Cc1nc(NC(=O)N2CCC[C@H]2C(N)=O)sc1-c1ccnc(C(C)(C)C(F)(F)F)c1 [alpelisib]
tumor growth inhibition (TGI) ([6]; alpelisib 25 mg/kg orally once a day, five times a week, three weeks from Day 0): 56%

COc1cc2nccc(Oc3ccc(NC(=O)C4(C(=O)Nc5ccc(F)cc5)CC4)cc3)c2cc1OC [cabozantinib]
tumor growth inhibition (TGI) ([7]; cabozantinib 40 mg/kg once a day, five times a week, 20 times in total): 67%

CO[C@H]1C[C@@H]2CC[C@@H](C)[C@@](O)(O2)C(=O)C(=O)N2CCCC[C@H]2C(=O)O[C@H]([C@H](C)C[C@@H]2CC[C@@H](OCCO)[C@H](OC)C2)CC(=O)[C@H](C)/C=C(\C)[C@@H](O)[C@@H](OC)C(=O)[C@H](C)C[C@H](C)/C=C/C=C/C=C/1C [everolimus]
tumor growth inhibition (TGI) ([5]; everolimus 5 mg/kg orally once a day, 3 weeks, BALB/c nude mice, day of effect determination): 64% | tumor growth inhibition (TGI) [8]: 52%

CCOc1cc2ncc(C#N)c(Nc3ccc(OCc4ccccn4)c(Cl)c3)c2cc1NC(=O)/C=C/CN(C)C [neratinib]
tumor growth inhibition (TGI) ([9]; neratinib 20 mg/kg orally once a day, five times a week, two weeks, day of effect determination): 84%

CC(=O)c1c(C)c2cnc(Nc3ccc(N4CCNCC4)cn3)nc2n(C2CCCC2)c1=O [palbociclib]
tumor growth inhibition (TGI) ([10]; palbociclib 50 mg/kg orally once a day, five times a week, three weeks from Day 0): 72%

CNC(=O)c1cc(Oc2ccc(NC(=O)Nc3ccc(Cl)c(C(F)(F)F)c3)c(F)c2)ccn1 [regorafenib]
tumor growth inhibition (TGI) [11]: 81%

Cc1nc(-c2cn3c(n2)-c2ccc(-c4cnn(C(C)(C)C(N)=O)c4)cc2OCC3)n(C(C)C)n1 [taselisib]
tumor growth inhibition (TGI) ([5]; taselisib 5 mg/kg orally once a day, 3 weeks): 67%

Cc1cc(Nc2ncnc3ccc(NC4=NC(C)(C)CO4)cc23)ccc1Oc1ccn2ncnc2c1 [tucatinib]
tumor growth inhibition (TGI) [12]: 78% | tumor growth inhibition (TGI) [13]: 36% | tumor growth inhibition (TGI) [14]: 65%

antibody-drug conjugate (2): anti-HER3 antibody (SEQ ID NO: 3 and 4) conjugated to the drug-linker via thioether bond; DAR 7 to 8
tumor growth inhibition (TGI) ([9]; antibody-drug conjugate (2) 10 mg/kg iv once a week, three weeks (Days 0, 7, 14)): 67% | tumor growth inhibition (TGI) ([10]; antibody-drug conjugate (2) 1 mg/kg iv once a week, three weeks (Days 0, 7, 14), grouped 11 days after transplantation): 54% | tumor growth inhibition (TGI) ([6]; antibody-drug conjugate (2) 1 mg/kg iv once a week, three weeks (Days 0, 7, 14), grouped 7 days after transplantation): 68%

B1: antibody-drug conjugate (3): anti-CDH6 antibody (SEQ ID NO: 9 residues 20-471, SEQ ID NO: 10 residues 21-233) conjugated to the drug-linker via thioether bond; DAR 7 to 8 (conjugate, chains of the INN, looked up)
VH: EVQLVQSGAEVKKPGASVKVSCKASGYTFTRNFMHWVRQAPGQGLEWMGWIYPGDGETEYAQKFQGRVTITADTSTSTAYMELSSLRSEDTAVYYCARGVYGGFAGGYFDFWGQGTLVTVSS
VL: DIQMTQSPSSLSASVGDRVTITCKASQNIYKNLAWYQQKPGKAPKLLIYDANTLQTGVPSRFSGSGSGSDFTLTISSLQPEDFATYFCQQYYSGWAFGQGTKVEIK
modifications: deruxtecan-type drug-linker, DAR 7-8
tumor growth inhibition (TGI) ([7]; antibody-drug conjugate (3) 10 mg/kg iv on Day 0): 71%
